According to patent US7511013B2, “Cyclosporin analogues and their pharmaceutical uses” (AMR Technology, Inc., priority 2004, dated 2009):
*1 amine or outer side, *2 acyl side, *3 side chain or, on linkers, in order; H or OH if unused. Where a SMILES comes first, the peptide text is derived from it. [ ]: non-standard residue; d: D form. X1 = C=C/C=C/C[C@@H](C)[C@@H](O)[C@@H](C(=O)[*:2])N(C)[*:1]; X3 = C[C@H](C/C=C/Cl)[C@@H](O)[C@@H](C(=O)[*:2])N(C)[*:1]; X2 = C[C@H](C/C=C/I)[C@@H](O)[C@@H](C(=O)[*:2])N(C)[*:1]; NMeL = CN[C@@H](CC(C)C)C(=O)O; NMeV = CN[C@H](C(=O)O)C(C)C; dNMeS = CN[C@H](CO)C(=O)O; Abu = CC[C@H](N)C(=O)O

These molecules were tested on concanavalin A-stimulated splenocytes (assay: Concanavalin A-stimulated splenocyte assay ([3H]thymidine incorporation)). Details: not given.
Assay type: cell-based, BALB/c mice
Method: Male BALB/c mice, at 5 to 7 weeks of age, were sacrificed by CO2 inhalation. Spleens were removed and dissociated by pushing through a nylon cell strainer. The splenocytes were washed in RPMI 1640/5% fetal calf serum (FCS) and pelleted at 400×g. Red blood cells were then lysed by resuspending the cell pellet in ACK lysis buffer (150 mM NH4Cl, 1 mM KHCO3, 0.1 mM EDTA, 3 mL per spleen) for 10 min at room temperature. After pelleting at 400×g, the cells were washed by resuspending in RPMI 1640/5% FCS and repelleting. The cell pellet was resuspended in RPMI 1640/5% FCS and again passed through a cell strainer to remove cell aggregates. The cells were then counted and adjusted to 2×10^6 cells/ml in RPMI 1640/10% FCS/50 μM 2-mercaptoethanol. Cell viability was assessed by Trypan blue staining. […] The cells were cultured in a 37° C. CO2 incubator for 2 days and then pulsed with 1 μCi of [^3H]thymidine for 6 hours. Cells were harvested onto filtermats with a TomTec 96 well plate harvester and lysed with H2O. The filtermat and scintillation fluid were sealed in a plastic sleeve. [^3H]thymidine incorporation was measured with a Wallac Trilux plate counter. Initial screens were done at a fixed value of 100 ng/ml test compound. IC50s were calculated from 7 point concentration-response curves using GraphPad software.

Row | IC50 (ng/mL), immunosuppressive activity of novel cyclosporin analogue compound [ng/mL] | Structure (SMILES)
1 | 12 | CC[C@@H]1NC(=O)[C@H]([C@H](O)[C@H](C)CC=CCF)N(C)C(=O)[C@H](C(C)C)N(C)C(=O)[C@H](CC(C)C)N(C)C(=O)[C@H](CC(C)C)N(C)C(=O)[C@@H](C)NC(=O)[C@H](C)NC(=O)[C@H](CC(C)C)N(C)C(=O)[C@H](C(C)C)NC(=O)[C@H](CC(C)C)N(C)C(=O)CN(C)C1=O [Example 34, cyclosporin allylic fluoride]
2 | 11 | CC[C@@H]1NC(=O)[C@H]([C@H](O)[C@H](C)C/C=C/I)N(C)C(=O)[C@H](C(C)C)N(C)C(=O)[C@H](CC(C)C)N(C)C(=O)[C@H](CC(C)C)N(C)C(=O)[C@@H](C)NC(=O)[C@H](C)NC(=O)[C@H](CC(C)C)N(C)C(=O)[C@H](C(C)C)NC(=O)[C@H](CC(C)C)N(C)C(=O)CN(C)C1=O [Example 6, cyclosporin vinyl iodide]
3 | 9 | CC[C@@H]1NC(=O)[C@H]([C@H](O)[C@H](C)C/C=C/Br)N(C)C(=O)[C@H](C(C)C)N(C)C(=O)[C@H](CC(C)C)N(C)C(=O)[C@H](CC(C)C)N(C)C(=O)[C@@H](C)NC(=O)[C@H](C)NC(=O)[C@H](CC(C)C)N(C)C(=O)[C@H](C(C)C)NC(=O)[C@H](CC(C)C)N(C)C(=O)CN(C)C1=O [Example 19, trans-cyclosporin vinyl bromide]
4 | 7 | CC[C@@H]1NC(=O)[C@H]([C@H](O)[C@H](C)C/C=C/I)N(C)C(=O)[C@H](C(C)C)N(C)C(=O)[C@H](CC(C)C)N(C)C(=O)[C@H](CC(C)C)N(C)C(=O)[C@@H](C)NC(=O)[C@H](C)NC(=O)[C@H](CC(C)C)N(C)C(=O)[C@H](C(C)C)NC(=O)[C@H](CC(C)C)N(C)C(=O)CN(C)C1=O [Example 9, trans-deuterated cyclosporin vinyl iodide]
5 | 38 | CC[C@@H]1NC(=O)[C@H]([C@H](O)[C@H](C)CC=CC(F)(F)F)N(C)C(=O)[C@H](C(C)C)N(C)C(=O)[C@H](CC(C)C)N(C)C(=O)[C@H](CC(C)C)N(C)C(=O)[C@@H](C)NC(=O)[C@H](C)NC(=O)[C@H](CC(C)C)N(C)C(=O)[C@H](C(C)C)NC(=O)[C@H](CC(C)C)N(C)C(=O)CN(C)C1=O [Example 31, cyclosporin fluoride]

The next lines start with the molecule.

Row | Structure (SMILES) | IC50 (ng/mL), immunosuppressive activity of novel cyclosporin analogue compound [ng/mL]
6 | CC[C@@H]1NC(=O)[C@H]([C@H](O)[C@H](C)C/C=C/I)N(C)C(=O)[C@H](C(C)C)N(C)C(=O)[C@H](CC(C)C)N(C)C(=O)[C@H](CC(C)C)N(C)C(=O)[C@@H](C)NC(=O)[C@H](C)NC(=O)[C@H](CC(C)C)N(C)C(=O)[C@H](C(C)C)NC(=O)[C@H](CC(C)C)N(C)C(=O)[C@@H](CO)N(C)C1=O [Example 72, cyclosporin vinyl iodide] (cyclo([X2][Abu][dNMeS][NMeL]V[NMeL]A[dA][NMeL][NMeL][NMeV])) | 5
7 | C=C/C=C/C[C@@H](C)[C@@H](O)[C@H]1C(=O)N[C@@H](CC)C(=O)N(C)[C@H](CO)C(=O)N(C)[C@@H](CC(C)C)C(=O)N[C@@H](C(C)C)C(=O)N(C)[C@@H](CC(C)C)C(=O)N[C@@H](C)C(=O)N[C@H](C)C(=O)N(C)[C@@H](CC(C)C)C(=O)N(C)[C@@H](CC(C)C)C(=O)N(C)[C@@H](C(C)C)C(=O)N1C [Example 67, trans-cyclosporin diene] (cyclo([X1][Abu][dNMeS][NMeL]V[NMeL]A[dA][NMeL][NMeL][NMeV])) | 7
8 | C=C/C=C/C[C@@H](C)[C@@H](O)[C@H]1C(=O)N[C@@H](CC)C(=O)N(C)[C@H](CO)C(=O)N(C)[C@@H](CC(C)C)C(=O)N[C@@H](C(C)C)C(=O)N(C)[C@@H](CC(C)C)C(=O)N[C@@H](C)C(=O)N[C@H](C)C(=O)N(C)[C@@H](CC(C)C)C(=O)N(C)[C@@H](CC(C)C)C(=O)N(C)[C@@H](C(C)C)C(=O)N1C [Example 69, trans-cyclosporin diene-d2] (cyclo([X1][Abu][dNMeS][NMeL]V[NMeL]A[dA][NMeL][NMeL][NMeV])) | 4
9 | CC[C@@H]1NC(=O)[C@H]([C@H](O)[C@H](C)C/C=C/Cl)N(C)C(=O)[C@H](C(C)C)N(C)C(=O)[C@H](CC(C)C)N(C)C(=O)[C@H](CC(C)C)N(C)C(=O)[C@@H](C)NC(=O)[C@H](C)NC(=O)[C@H](CC(C)C)N(C)C(=O)[C@H](C(C)C)NC(=O)[C@H](CC(C)C)N(C)C(=O)[C@@H](CO)N(C)C1=O [Example 71, cyclosporin vinyl chloride] (cyclo([X3][Abu][dNMeS][NMeL]V[NMeL]A[dA][NMeL][NMeL][NMeV])) | 8
10 | CCON=C/C=C/C[C@@H](C)[C@@H](O)[C@H]1C(=O)N[C@@H](CC)C(=O)N(C)CC(=O)N(C)[C@@H](CC(C)C)C(=O)N[C@@H](C(C)C)C(=O)N(C)[C@@H](CC(C)C)C(=O)N[C@@H](C)C(=O)N[C@H](C)C(=O)N(C)[C@@H](CC(C)C)C(=O)N(C)[C@@H](CC(C)C)C(=O)N(C)[C@@H](C(C)C)C(=O)N1C [Example 58, cyclosporin oxime] | 42

Same assay, conditions: FIG. 1, concanavalin A stimulated splenocyte assay

Row | Structure (SMILES) | potency in immunosuppression compared to cyclosporin A
11 | CC[C@@H]1NC(=O)[C@H]([C@H](O)[C@H](C)C/C=C/I)N(C)C(=O)[C@H](C(C)C)N(C)C(=O)[C@H](CC(C)C)N(C)C(=O)[C@H](CC(C)C)N(C)C(=O)[C@@H](C)NC(=O)[C@H](C)NC(=O)[C@H](CC(C)C)N(C)C(=O)[C@H](C(C)C)NC(=O)[C@H](CC(C)C)N(C)C(=O)CN(C)C1=O [Example 9, trans-deuterated cyclosporin vinyl iodide] | enhanced potency
12 | CC[C@@H]1NC(=O)[C@H]([C@H](O)[C@H](C)C/C=C/Cl)N(C)C(=O)[C@H](C(C)C)N(C)C(=O)[C@H](CC(C)C)N(C)C(=O)[C@H](CC(C)C)N(C)C(=O)[C@@H](C)NC(=O)[C@H](C)NC(=O)[C@H](CC(C)C)N(C)C(=O)[C@H](C(C)C)NC(=O)[C@H](CC(C)C)N(C)C(=O)CN(C)C1=O [Example 11, trans-deuterated cyclosporin vinyl chloride] | enhanced potency
